From patent US20100239635A1, “DRUG DELIVERY MEDICAL DEVICE” (MICELL TECHNOLOGIES, INC., priority 2009, published 2010)
One block for each compound: values may come before it.

Tests used:
[1] = cited from earlier work
[2] = tested on: bladder cancer; details: optimized schedule: 40 mg/20 cc (compared with 20 mg/20 cc), overnight dehydration, complete bladder emptying, alkalinization with sodium bicarbonate; cited from earlier work
[3] = parameters: dose or concentration left out as unconfirmed; details: estradiol release, as its 3-acetate ester; cited from earlier work
[4] = In vivo study of coating and drug transfer from a stent, porcine coronary artery model; parameters: species or system Yucatan pig; details: for amount of drug detected in the arterial tissue: stent as in Example 1
Method: Another sample of the coated stent was prepared for in vivo evaluation in a porcine coronary artery model using the Yucatan pig. Subjects were initially given 650 mg acetylsalicylic acid and 300 mg Plavix. Maintenance doses of 81 mg acetylsalicylic acid and 75 mg Plavix were administered. The target ACT (activated clotting time) for the procedure was about 250 seconds. Stent oversizing in relation to the artery was about 10-20%. The preparation of the sirolimus-coated stent was the same as described in Example 1 and used for the in vitro deployment into tubing, except that the device was sterilized using ETO prior to implantation into the animal.
The bulk concentration of drug was measured in the arterial tissue surrounding the implanted stent at 1, 3, 7, 14, and 28 days after implant, and provided a quantitative measure of the high efficiency of transfer of drug into the therapeutic site using devices and methods of the invention. The amount of drug that was detected in the arterial tissue was as follows: 1 day after implant, ˜6 μg; 3 days after implant, ˜16 μg; 7 days after implant, ˜30 μg; 14 days after implant, ˜30 μg; 28 days after implant, ˜13 μg. Peak tissue concentration of sirolimus of ˜30 μg at 14 days after implant was representative of approximately ⅙^th of the total drug that had been loaded on the stent. Note that some drug likely metabolized or diffused out of the arterial tissue into other areas of the body.

[5] = given intravesically in doses as high as 1 billion units; cited from earlier work

Compound: CO[C@@]12[C@H](COC(N)=O)C3=C(C(=O)C(C)=C(N)C3=O)N1C[C@@H]1N[C@@H]12 [Mitomycin C, mitomycin C]
stability in acid urine [1]: inactivated
recurrence [2]: nearly cut in half

Compound: C[C@]12CC[C@@H]3c4ccc(O)cc4CC[C@H]3[C@@H]1CC[C@@H]2O [estradiol]
circulating plasma concentration of the drug [3]: 300 pmol/L

amount of drug detected in the arterial tissue ([4]; 1 day after implant): ~6 µg
amount of drug detected in the arterial tissue ([4]; 3 days after implant): ~16 µg
amount of drug detected in the arterial tissue ([4]; 7 days after implant): ~30 µg
amount of drug detected in the arterial tissue ([4]; 14 days after implant): ~30 µg
amount of drug detected in the arterial tissue ([4]; 28 days after implant): ~13 µg
Peak tissue concentration of sirolimus ([4]; at 14 days after implant): ~30 µg
peak tissue amount as fraction of the total drug loaded on the stent ([4]; at 14 days after implant): approximately ⅙
Compound: CO[C@H]1C[C@@H]2CC[C@@H](C)[C@@](O)(O2)C(=O)C(=O)N2CCCC[C@H]2C(=O)O[C@H]([C@H](C)C[C@@H]2CC[C@@H](O)[C@H](OC)C2)CC(=O)[C@H](C)/C=C(\C)[C@@H](O)[C@@H](OC)C(=O)[C@H](C)C[C@H](C)/C=C/C=C/C=C/1C [sirolimus]

Compound: Interferon Alpha 2b
dose-limiting side effects [5]: without dose-limiting side effects
